The results in this text go back to US12581252B2, “Substituted pyrrolo[3,4-b]pyridines as PI3K-α inhibitors” (Relay Therapeutics, Inc., priority 2020, dated 2026).

Each structure is given as a SMILES string. pIC50: −log10 of the molar value.

Chain of H1047R PIK3CA enzyme (P42336 whole entry H1047R): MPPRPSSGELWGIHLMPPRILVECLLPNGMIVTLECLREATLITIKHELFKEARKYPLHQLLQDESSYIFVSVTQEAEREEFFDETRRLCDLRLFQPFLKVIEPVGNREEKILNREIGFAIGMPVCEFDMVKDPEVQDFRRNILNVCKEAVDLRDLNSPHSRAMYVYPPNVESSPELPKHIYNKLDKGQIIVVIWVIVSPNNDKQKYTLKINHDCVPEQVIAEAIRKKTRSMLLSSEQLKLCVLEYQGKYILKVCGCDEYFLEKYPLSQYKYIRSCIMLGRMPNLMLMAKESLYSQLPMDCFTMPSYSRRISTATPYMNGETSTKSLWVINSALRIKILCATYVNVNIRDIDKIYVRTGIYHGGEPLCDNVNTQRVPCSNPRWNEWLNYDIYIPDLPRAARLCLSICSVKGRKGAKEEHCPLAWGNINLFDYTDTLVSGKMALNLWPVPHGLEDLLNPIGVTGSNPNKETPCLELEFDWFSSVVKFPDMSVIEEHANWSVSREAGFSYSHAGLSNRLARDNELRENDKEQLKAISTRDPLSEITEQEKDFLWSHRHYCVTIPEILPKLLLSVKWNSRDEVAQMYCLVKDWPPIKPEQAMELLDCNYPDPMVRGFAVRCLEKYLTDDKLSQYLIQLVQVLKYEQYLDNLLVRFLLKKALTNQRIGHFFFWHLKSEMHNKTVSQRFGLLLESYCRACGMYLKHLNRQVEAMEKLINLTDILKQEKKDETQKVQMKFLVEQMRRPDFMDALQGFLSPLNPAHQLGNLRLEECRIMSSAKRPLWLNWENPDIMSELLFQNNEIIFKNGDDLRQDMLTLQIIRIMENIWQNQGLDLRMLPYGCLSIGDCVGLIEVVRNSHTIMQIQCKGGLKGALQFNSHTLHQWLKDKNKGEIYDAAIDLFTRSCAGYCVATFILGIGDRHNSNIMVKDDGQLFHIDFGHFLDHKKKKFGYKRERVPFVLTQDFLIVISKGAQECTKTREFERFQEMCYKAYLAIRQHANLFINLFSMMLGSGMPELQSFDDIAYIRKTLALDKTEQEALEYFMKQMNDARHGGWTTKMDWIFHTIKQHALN
Chain of H1047R PIK3CA enzyme (P27986 whole entry partner): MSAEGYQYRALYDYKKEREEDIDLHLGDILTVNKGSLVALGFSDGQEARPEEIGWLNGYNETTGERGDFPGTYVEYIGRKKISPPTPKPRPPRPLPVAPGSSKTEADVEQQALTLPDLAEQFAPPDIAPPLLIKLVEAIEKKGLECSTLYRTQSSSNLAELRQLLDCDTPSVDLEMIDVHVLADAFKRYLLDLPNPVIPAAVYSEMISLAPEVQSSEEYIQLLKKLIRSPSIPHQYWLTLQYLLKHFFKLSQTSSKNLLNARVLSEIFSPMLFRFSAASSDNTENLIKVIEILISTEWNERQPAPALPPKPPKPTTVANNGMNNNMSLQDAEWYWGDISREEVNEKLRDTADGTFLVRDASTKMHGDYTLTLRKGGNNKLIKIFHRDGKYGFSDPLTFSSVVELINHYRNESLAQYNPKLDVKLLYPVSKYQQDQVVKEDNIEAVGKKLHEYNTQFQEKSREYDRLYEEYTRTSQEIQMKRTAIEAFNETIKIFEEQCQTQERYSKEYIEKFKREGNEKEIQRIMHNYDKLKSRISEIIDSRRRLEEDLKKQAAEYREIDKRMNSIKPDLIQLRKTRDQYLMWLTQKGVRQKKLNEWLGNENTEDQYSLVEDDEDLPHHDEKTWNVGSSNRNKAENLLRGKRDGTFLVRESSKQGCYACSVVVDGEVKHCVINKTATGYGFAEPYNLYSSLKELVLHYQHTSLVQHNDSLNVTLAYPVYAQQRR

This assay addresses H1047R PIK3CA enzyme (Homo sapiens, UniProt P42336, H1047R). The assay is described as follows: ADP-Glo Biochemical PIK3CA Kinase Assay. On the technique in general: ADP-Glo turns the ADP formed in a reaction into a luminescent signal.
The term pIC50 denotes the IC50 on a negative log10 scale, so that one unit is a factor of ten. In the case of `O=C(Nc1cc(Br)cc2c1C(c1cc(F)ccc1C(F)F)NC2=O)c1cc(F)cc(C(F)(F)F)c1` (stereo not drawn) [Compound I-206], the pIC50 is at least 7.00.

As for `CC(=O)NCc1cc(NC(=O)c2cc(F)cc(C(F)(F)F)c2)c2c(c1)C(=O)NC2c1cc(F)ccc1Cl` (stereo not drawn) [Compound I-207], the pIC50 is 6.30 to 7.00. In turn, `O=C(Nc1ccnc2c1C(c1ccccc1Cl)NC2=O)c1cc(F)cc(C(F)(F)F)c1` (stereo not drawn) [Compound I-208] showed a pIC50 of 6.00 to 6.30. On to `O=C1NC(c2ccccc2Cl)c2c(NC(=O)c3coc4c(F)cc(F)cc34)ccnc21` (stereo not drawn) [Compound I-209], for which the negative-log IC50 (pIC50) is 6.00 to 6.30.

In the case of `O=C1NC(c2cccc(F)c2F)c2c(NC(=O)c3coc4c(F)cc(F)cc34)ccnc21` (stereo not drawn) [Compound I-210], the pIC50 is 5.00 to 6.00. The value for `CNC(=O)c1cc(NC(=O)c2cc(F)cc(C(F)(F)F)c2)c2c(c1)C(=O)N[C@@H]2c1ccccc1C` [Compound I-211] was 4.00 to 5.00; that for `CNC(=O)c1cc(NC(=O)c2cc(F)cc(C(F)(F)F)c2)c2c(c1)C(=O)N[C@H]2c1ccccc1C` [Compound I-212] was at least 7.00. `CC(C)(O)c1cc(NC(=O)c2cc(F)cc(Cl)c2)c2c(c1)C(=O)NC2c1cc(F)ccc1Cl` (stereo not drawn) [Compound I-214] had a pIC50 of at least 7.00. Compound `CC(=O)c1cc(NC(=O)c2cc(F)cc(Cl)c2)c2c(c1)C(=O)NC2c1cc(F)ccc1Cl` (stereo not drawn) [Compound I-215] had a pIC50 of 6.30 to 7.00. Compound `O=C(Nc1cc(Br)cc2c1C(c1cc(F)ccc1Cl)NC2=O)c1cc(F)cc(Cl)c1` (stereo not drawn) [Compound I-216] had a pIC50 of at least 7.00. `Nc1cc(NC(=O)c2cc(F)cc(C(F)(F)F)c2)c2c(c1)C(=O)N[C@@H]2c1cc(F)ccc1Cl` [Compound I-217] gave a pIC50 of 5.00 to 6.00. The value for `Cc1ccccc1C1NC(=O)c2c(C(=O)N3CC(C#N)C3)ccc(NC(=O)c3nsc4ccccc34)c21` (stereo not drawn) [Compound I-219] was 6.00 to 6.30.

As for `O=C1NC(c2ccccc2C(F)(F)F)c2c(NC(=O)c3nsc4ccccc34)cccc21` (stereo not drawn) [Compound I-221], the pIC50 was 4.00 to 5.00. For `COC(=O)c1cc(NC(=O)c2nsc3ccccc23)c2c(n1)C(=O)NC2c1ccccc1Cl` (stereo not drawn) [Compound I-222, Methyl 4-(1,2-benzothiazole-3-amido)-5-(2-chlorophenyl)-7-oxo-5H,6H,7H-pyrrolo[3,4-b]pyridine-2-carboxylate], the negative logarithm of the IC50 (pIC50) is 6.30 to 7.00. Turning to `Cc1ccccc1C1NC(=O)c2c(CNC(=O)C(F)(F)F)ccc(NC(=O)c3csc4ccccc34)c21` (stereo not drawn) [Compound I-223], the pIC50 is 6.30 to 7.00. The value for `Cc1ccccc1C1NC(=O)c2c(CO)ccc(NC(=O)c3csc4ccccc34)c21` (stereo not drawn) [Compound I-224] was at least 7.00; that for `Cc1ccccc1C1NC(=O)c2c(C(=O)N3CC(S(C)(=O)=O)C3)ccc(NC(=O)c3nsc4ccccc34)c21` (stereo not drawn) [Compound I-225] was 6.30 to 7.00; that for `Cc1ccccc1C1NC(=O)c2cccc(NC(=O)C34CCC(C3)c3ccccc34)c21` (stereo not drawn) [Compound I-226, N-(1-Oxo-3-(o-tolyl)isoindolin-4-yl)-1,2,3,4-tetrahydro-1,4-methanonaphthalene-1-carboxamide] was 5.00 to 6.00. The value for `Cc1ccccc1[C@@H]1NC(=O)c2nccc(NC(=O)N3CCc4ccccc43)c21` [Compound I-227] was 6.30 to 7.00. As for `Cc1ccccc1[C@H]1NC(=O)c2nccc(NC(=O)N3CCc4ccccc43)c21` [Compound I-228], the pIC50 was 4.00 to 5.00.

For `Cc1ccccc1[C@@H]1NC(=O)c2nccc(NC(=O)N3CCc4c(F)cc(F)cc43)c21` [Compound I-229], the pIC50 was 6.00 to 6.30. In the case of `Cc1ccccc1[C@H]1NC(=O)c2nccc(NC(=O)N3CCc4c(F)cc(F)cc43)c21` [Compound I-230], the pIC50 is 4.00 to 5.00. As for `CS(=O)(=O)Cc1cc(NC(=O)c2cc(F)cc(Cl)c2)c2c(c1)C(=O)NC2c1cc(F)ccc1Cl` (stereo not drawn) [Compound I-231], the negative-log IC50 (pIC50) was at least 7.00.

Take `Cc1ccccc1C1NC(=O)c2c(Cl)ncc(NC(=O)c3cc(F)cc(C(F)(F)F)c3)c21` (stereo not drawn) [Compound I-232, N-[4-Chloro-1-(2-methylphenyl)-3-oxo-1H,2H,3H-pyrrolo[3,4-c]pyridin-7-yl]-3-fluoro-5-(trifluoromethyl)benzamide]: the pIC50 is 6.30 to 7.00. In the case of `Cc1ccccc1C1NC(=O)c2cncc(NC(=O)c3cc(F)cc(C(F)(F)F)c3)c21` (stereo not drawn) [Compound I-233], the pIC50 is 6.30 to 7.00.

Regarding `O=C(Nc1ccnc2c1C(c1ccccc1Cl)NC2=O)c1cc(F)cc(OC(F)(F)F)c1` (stereo not drawn) [Compound I-234], the pIC50 was 5.00 to 6.00. The value for `N#Cc1cc(F)cc(C(=O)Nc2ccnc3c2C(c2ccccc2Cl)NC3=O)c1` (stereo not drawn) [Compound I-235] was 4.00 to 5.00; that for `Cc1ccccc1C1NC(=O)c2c(C#N)ncc(NC(=O)c3cc(F)cc(C(F)(F)F)c3)c21` (stereo not drawn) [Compound I-236] was 5.00 to 6.00; that for `N#Cc1cc(NC(=O)c2cc(F)cc(C(F)(F)F)c2)c2c(c1)C(=O)NC2c1cc(F)ccc1C(F)F` (stereo not drawn) [Compound I-237] was at least 7.00. Compound `CC(=O)c1cc(NC(=O)c2cc(F)cc(C(F)(F)F)c2)c2c(c1)C(=O)NC2c1cc(F)ccc1C(F)F` (stereo not drawn) [Compound I-238] had a pIC50 of at least 7.00. The compound `CC(C)(O)c1cc(NC(=O)c2cc(F)cc(C(F)(F)F)c2)c2c(c1)C(=O)NC2c1cc(F)ccc1C(F)F` (stereo not drawn) [Compound I-239] showed a pIC50 of at least 7.00. Turning to `O=C(Nc1ccnc2c1C(c1ccccc1Cl)NC2=O)c1ccnc2c1CCC2` (stereo not drawn) [Compound I-240], the pIC50 is 4.00 to 5.00.

Take `Cn1ncc(C2NC(=O)c3cccc(NC(=O)c4nsc5ccccc45)c32)c1C(F)F` (stereo not drawn) [Compound I-241]: the pIC50 was 4.00 to 5.00.

The compound `CC(C)(O)c1cc(NC(=O)c2cc(F)cc(C(F)(F)F)c2)c2c(n1)C(=O)NC2c1cc(F)ccc1Cl` (stereo not drawn) [Compound I-242] had a pIC50 of 6.30 to 7.00. Consider `Cc1ccccc1C1NC(=O)c2c(N(C)C)ncc(NC(=O)c3cc(F)cc(C(F)(F)F)c3)c21` (stereo not drawn) [Compound I-243], for which the pIC50 is 6.00 to 6.30. Take `Cc1ccccc1C1NC(=O)c2c(C)ncc(NC(=O)c3cc(F)cc(C(F)(F)F)c3)c21` (stereo not drawn) [Compound I-244, 3-Fluoro-N-(4-methyl-3-oxo-1-(o-tolyl)-2,3-dihydro-1H-pyrrolo[3,4-c]pyridin-7-yl)-5-(trifluoromethyl)benzamide]: the pIC50 was 6.30 to 7.00. The value for `O=C(Nc1ccc(F)cc1F)Nc1ccnc2c1C(c1ccccc1Cl)NC2=O` (stereo not drawn) [Compound I-245] was 5.00 to 6.00.

For the compound `Cc1ccccc1[C@@H]1NC(=O)c2nccc(NC(=O)N3CCc4ccc(F)cc43)c21` [Compound I-246], the pIC50 was 6.30 to 7.00. The compound `Cc1ccccc1[C@H]1NC(=O)c2nccc(NC(=O)N3CCc4ccc(F)cc43)c21` [Compound I-247] gave a pIC50 of 4.00 to 5.00. Consider `Cc1ccccc1C1NC(=O)c2nccc(NC(=O)N3CCc4cnccc43)c21` (stereo not drawn) [Compound I-248], for which the negative logarithm of the IC50 (pIC50) is 4.00 to 5.00. Regarding `Cc1ccccc1C1NC(=O)c2nccc(NC(=O)N3CC(C)c4ccccc43)c21` (stereo not drawn) [Compound I-249], the pIC50 was 6.30 to 7.00.

The compound `CC(C)(O)c1cc(NC(=O)c2nsc3ccccc23)c2c(n1)C(=O)NC2c1ccccc1Cl` (stereo not drawn) [Compound I-250] showed a pIC50 of at least 7.00. For the compound `Cc1ccccc1C1NC(=O)c2nccc(NC(=O)N3CCc4ccncc43)c21` (stereo not drawn) [Compound I-251], the pIC50 was 4.00 to 5.00.

Consider `Cc1ccccc1-n1[nH]c(=O)c2cccc(NC(=O)c3coc4c(F)cc(Cl)cc34)c21` [Compound I-252], for which the pIC50 was 6.30 to 7.00. `Cc1ccccc1C1NC(=O)c2c(N3CCOCC3)ncc(NC(=O)c3cc(F)cc(C(F)(F)F)c3)c21` (stereo not drawn) [Compound I-253] showed a negative-log IC50 (pIC50) of 5.00 to 6.00. Compound `Cc1ccccc1C1NC(=O)c2c(-c3cnn(C)c3)ncc(NC(=O)c3cc(F)cc(C(F)(F)F)c3)c21` (stereo not drawn) [Compound I-254] gave a negative-log IC50 (pIC50) of 6.30 to 7.00. The compound `O=C(Nc1cnc(N2CCOCC2)c2c1C(c1cc(F)ccc1Cl)NC2=O)c1cc(F)cc(C(F)(F)F)c1` (stereo not drawn) [Compound I-255] gave a pIC50 of 5.00 to 6.00. `Cc1ccccc1C1NC(=O)c2cccc(NC(=O)C3CCc4ccccc43)c21` (stereo not drawn) [Compound I-256]: the pIC50 is 5.00 to 6.00. On to `O=C1NC(c2cc(F)ccc2Cl)c2c(NC(=O)N3CCc4ccccc43)ccnc21` (stereo not drawn) [Compound I-257], for which the pIC50 is 6.00 to 6.30. The value for `Cc1ccccc1C1NC(=O)c2cccc(NC(=O)c3ncn4ccc(Cl)cc34)c21` (stereo not drawn) [Compound I-258, 7-chloro-N-[3-(2-methylphenyl)-1-oxo-2,3-dihydro-1H-isoindol-4-yl]imidazo[1,5-a]pyridine-1-carboxamide] was 5.00 to 6.00; that for `O=C(Nc1cccc2c1C(C1CC1)NC2=O)c1cc(F)cc(C(F)(F)F)c1` (stereo not drawn) [Compound I-259] was 4.00 to 5.00.

For `Cc1ccccc1C1NC(=O)c2cc(CN)cc(NC(=O)c3cc(F)cc(C(F)(F)F)c3)c21` (stereo not drawn) [Compound I-260], the negative logarithm of the IC50 (pIC50) is 6.30 to 7.00. The value for `Cc1ccccc1C1NC(=O)c2c(C(=O)NCC(N)=O)ccc(NC(=O)c3nsc4ccccc34)c21` (stereo not drawn) [Compound I-261] was at least 7.00; that for `Cc1ccccc1C1NC(=O)c2c(N)ncc(NC(=O)c3cc(F)cc(C(F)(F)F)c3)c21` (stereo not drawn) [Compound I-262, N-(4-Amino-3-oxo-1-(o-tolyl)-2,3-dihydro-1H-pyrrolo[3,4-c]pyridin-7-yl)-3-fluoro-5-(trifluoromethyl)benzamide] was 6.30 to 7.00.

Regarding `CC(C)(O)c1cc(NC(=O)c2cc(F)cc(C(F)(F)F)c2)c2c(c1)C(=O)N[C@@H]2c1cc(F)ccc1C(F)F` [Compound I-263], the pIC50 is 4.00 to 5.00.

In turn, `Cc1ccccc1C1NC(=O)c2c(C(N)=O)ncc(NC(=O)c3cc(F)cc(C(F)(F)F)c3)c21` (stereo not drawn) [Compound I-265] showed a pIC50 of 6.30 to 7.00.

On to `Cc1ccccc1C1NC(=O)c2cc(C(C)C)cc(NC(=O)c3cc(F)cc(C(F)(F)F)c3)c21` (stereo not drawn) [Compound I-266, 3-Fluoro-N-[3-(2-methylphenyl)-6-(isopropyl)-1-oxo-2,3-dihydro-1H-isoindol-4-yl]-5-(trifluoromethyl)benzamide], for which the pIC50 is 6.30 to 7.00.

`CC(C)(O)c1cc(NC(=O)c2cc(Cl)n3ccccc23)c2c(c1)C(=O)NC2c1cc(F)ccc1C(F)F` (stereo not drawn) [Compound I-267]: the pIC50 is at least 7.00. `Cc1ccccc1C1NC(=O)c2cc(CC(C)C)cc(NC(=O)c3cc(F)cc(C(F)(F)F)c3)c21` (stereo not drawn) [Compound I-268]: the pIC50 is at least 7.00.

For the compound `Nc1cc(NC(=O)c2cc(F)cc(C(F)(F)F)c2)cc2c1C(c1cc(F)ccc1C(F)F)NC2=O` (stereo not drawn) [Compound I-269], the pIC50 is 4.00 to 5.00.
